The values that follow come from ChEMBL document CHEMBL1140525, “Conformationally restricted macrocyclic analogues of combretastatins” (Bioorg Med Chem Lett, 2007).

Molecules are shown by their SMILES.

One assay addresses T1, Tubulin (Homo sapiens) (UniProt P68371+Q9H4B7+P0DPH7+P68366+Q13509+Q71U36+P04350+Q3ZCM7+P07437+P68363+Q9BQE3+Q6PEY2+Q13885+Q9BVA1+Q9BUF5). Put plainly: Inhibition of tubulin polymerization at 30 uM. Type of assay: protein-complex assay.
One may read the inhibition as the change of the read-out against control, counted positive when it falls. As to `COc1cc2cc(OC)c1OCCOCCOc1ccc(cc1)/C=C\2`, the inhibition is 0%.

The next assay has as its target T1, Tubulin (Homo sapiens). Put plainly: Inhibition of tubulin polymerization at 40 uM. Type of assay: protein-complex assay.
`COc1cc2cc(OC)c1OCCCCCCOc1ccc(cc1)/C=C\2` showed an inhibition of 60%.

The molecule `COc1cc2cc(OC)c1OCCOCCOc1ccc(cc1)[C@H](OC(C)=O)[C@H]2OC(C)=O` (relative stereo) showed an inhibition of 0%.

Consider `COc1cc2cc(OC)c1OCCCCCCOc1ccc(cc1)[C@H](O)[C@H]2O` (relative stereo), for which the inhibition was 4%. On the same count and under the same terms, next, `COc1cc2cc(OC)c1OCCOCCOc1ccc(cc1O)[C@@H](O)[C@H]2O` (relative stereo): 11%. Molecule `COc1cc2cc(OC)c1OCCCCCCOc1ccc(cc1OC(C)=O)[C@H](OC(C)=O)[C@H]2OC(C)=O` (relative stereo) registered an inhibition of 2%.

`COc1cc2cc(OC)c1OCCOCCOc1ccc(cc1)[C@@H]1OC(C)(C)O[C@H]21` came in with an inhibition of 0%.

In turn, `COc1cc2cc(OC)c1OCCCCCCOc1ccc(cc1O)/C=C\2` had an inhibition of 0%. On the same count and under the same terms, next, `COc1cc2cc(OC)c1OCCOCCOc1ccc(cc1)[C@@H](OC(C)=O)[C@H]2OC(C)=O` (relative stereo): 0%. The same measure, in the same setting: next, `COc1cc2cc(OC)c1OCCOCCOc1ccc(cc1OC(C)=O)[C@@H](OC(C)=O)[C@H]2OC(C)=O` (relative stereo): 0%; `COc1cc2cc(OC)c1OCCOCCOc1ccc(cc1OC(C)=O)[C@H](OC(C)=O)[C@H]2OC(C)=O` (relative stereo): 0%. Same read-out and setting: next, `COc1cc2cc(OC)c1OCCCCCCOc1ccc(cc1)[C@H](OC(C)=O)[C@H]2OC(C)=O`: 0%; `COc1cc2cc(OC)c1OCCOCCOc1ccc(cc1)[C@H](O)[C@H]2O`: 0%; `COc1cc2cc(OC)c1OCCOCCOc1ccc(cc1)[C@@H](O)[C@H]2O` (relative stereo): 0%.

`COc1cc2cc(OC)c1OCCOCCOc1ccc(cc1O)[C@H](O)[C@H]2O` (relative stereo): the inhibition worked out at 1%.

A further assay deals with T1, Tubulin (Homo sapiens). In words: Inhibition of tubulin polymerization at 20 uM. Type of assay: protein-complex assay.
`COc1cc2cc(OC)c1OCCCCCCn1ccc3cc(ccc31)[C@H](O)[C@H]2O` had an inhibition of 9%. Still for that read-out and setting: next, `COc1cc2cc(OC)c1OCCCCCCn1ccc3cc(ccc31)[C@H](OC(C)=O)[C@H]2OC(C)=O`: 8%. The same measure, in the same setting: next, `COc1cc2cc(OC)c1OCCCCCCn1ccc3cc(ccc31)[C@@H](OC(C)=O)[C@H]2OC(C)=O`: 9%. As for `COc1cc2cc(OC)c1OCCCCCCn1ccc3cc(ccc31)[C@@H](O)[C@H]2O`, the inhibition is 11%.

For the next assay, the target named is T1, Tubulin (Homo sapiens). In words: Inhibition of tubulin polymerization at 10 uM. It is filed as protein-complex assay.
In the case of `COc1cc2cc(OC)c1OCCCCCCn1ccc3cc(ccc31)/C=C\2`, the inhibition amounted to 19%.

In a further assay the target is Tubulin. In words: Inhibition of tubulin polymerization. Type of assay: protein-complex assay, Homo sapiens.
Broadly, the IC50 is the midpoint of a concentration-inhibition curve. Molecule `COc1ccc([C@H](O)[C@@H](O)c2cc(OC)c(OC)c(OC)c2)cc1O` yielded an IC50 of 22 µM.

In the case of `COc1ccc(/C=C\c2cc(OC)c(OC)c(OC)c2)cc1`, the IC50 came out at 2.2 µM.

As for `COc1ccc([C@@H]2OCO[C@H]2c2cc(OC)c(OC)c(OC)c2)cc1O`, half-maximal inhibition (IC50) required 4 µM. For `COc1ccc(C[C@@H](O)c2cc(OC)c(OC)c(OC)c2)cc1O` [COMBRETASTATIN], the IC50 was 5 µM. Same read-out and setting: next, `COc1ccc([C@H]2OCO[C@@H]2c2cc(OC)c(OC)c(OC)c2)cc1O`: more than 50 µM. Still for that read-out and setting: the same measure for `COc1ccc([C@@H](O)[C@H](O)c2cc(OC)c(OC)c(OC)c2)cc1O`: more than 40 µM.
